# Measurements: paper PMC13347698 (Analytical Chemistry, 2026)
# Tests used:
# [1] = target: monomeric E290A/R298A 3CL^pro double mutant (Severe acute respiratory syndrome coronavirus 2, UniProt P0DTD1, E3553A/R3561A); type: binding, SARS-CoV-2
# [2] = target: dimeric C145A 3CL^pro single mutant (Severe acute respiratory syndrome coronavirus 2, UniProt P0DTD1, C3408A); type: binding, SARS-CoV-2
compound,measurement,setting,value
CC(C)(C)c1ccc(N(C(=O)c2c[nH]cn2)[C@@H](C(=O)NC2CCCCC2)c2cccnc2)cc1 [X77],binding detectable,[1],not
same,binding heat detected,[2],No measurable heat was detected
